The record followed here is ChEMBL document CHEMBL1240510, “Synthesis, stereochemical separation, and biological evaluation of selective inhibitors of human MAO-B: 1-(4-arylthiazol-2-yl)-2-(3-methylcyclohexylidene)hydrazines” (J Med Chem, 2010).

As usually defined, the IC50 is the concentration that inhibits the measured activity by half. A high value points to lower potency.

The target of this assay is T1, Amine oxidase [flavin-containing] A (Homo sapiens, UniProt P21397).
T1 sequence (P21397 whole entry): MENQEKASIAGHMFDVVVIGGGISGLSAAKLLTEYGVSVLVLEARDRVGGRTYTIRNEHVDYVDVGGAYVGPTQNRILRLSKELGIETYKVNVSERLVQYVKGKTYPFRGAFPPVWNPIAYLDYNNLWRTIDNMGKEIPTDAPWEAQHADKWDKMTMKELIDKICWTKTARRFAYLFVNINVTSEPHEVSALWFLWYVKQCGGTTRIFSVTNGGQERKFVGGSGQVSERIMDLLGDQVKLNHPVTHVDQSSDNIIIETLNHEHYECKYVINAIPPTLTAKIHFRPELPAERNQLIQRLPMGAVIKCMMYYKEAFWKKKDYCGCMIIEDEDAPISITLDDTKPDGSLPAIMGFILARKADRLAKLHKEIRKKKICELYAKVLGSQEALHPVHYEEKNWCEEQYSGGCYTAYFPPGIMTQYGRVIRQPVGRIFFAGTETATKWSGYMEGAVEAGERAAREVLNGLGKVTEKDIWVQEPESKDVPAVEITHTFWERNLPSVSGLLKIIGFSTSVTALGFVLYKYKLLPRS
The experiment in a line: biochemical. It counts as cell-based, BTI-TN-5B1-4.
`C[C@@H]1CCC/C(=N/Nc2nc(-c3ccc(Cl)cc3)cs2)C1` returned an IC50 of 22.8 µM.

Take `CC1CCC/C(=N/Nc2nc(-c3ccc(Cl)cc3)cs2)C1` (centres undefined): it took 23.1 µM to reach half-maximal inhibition (IC50).

Take `CC1CCC/C(=N/Nc2nc(-c3ccc(Cl)cc3Cl)cs2)C1` (centres undefined): the IC50 was 43.8 µM.

As to `C[C@@H]1CCC/C(=N/Nc2nc(-c3ccc(C#N)cc3)cs2)C1`, half-maximal inhibition (IC50) was put at 21.9 µM.

Compound `C[C@@H]1CCC/C(=N/Nc2nc(-c3ccc(Cl)cc3Cl)cs2)C1` showed an IC50 of 40.6 µM.

In turn, `CC1CCC/C(=N/Nc2nc(-c3ccccc3)cs2)C1` (centres undefined) returned an IC50 of 37.8 µM. This IC50 and that of the compound before are within 1.5-fold of each other.

Consider `CC1CCC/C(=N/Nc2nc(-c3ccc(C#N)cc3)cs2)C1` (centres undefined), for which half-maximal inhibition (IC50) required 20.6 µM.

For the compound `C[C@@H]1CCC/C(=N/Nc2nc(-c3ccccc3)cs2)C1`, the IC50 turned out to be 38.6 µM. This IC50 is about 1.9-fold higher than that of the compound before.

The compound `COc1ccc(-c2csc(N/N=C3/CCC[C@@H](C)C3)n2)cc1` came in with a 50% inhibitory concentration (IC50) of 4.26 µM.
